Legend:
Format in all cases: functional
[1] = tested on: M14; test: Growth inhibitory activity against Melanoma M14 cell line was determined; conditions: Homo sapiens
[2] = tested on: K562; test: Growth inhibitory activity against Leukemia K-562 cell line was determined; conditions: Homo sapiens
[3] = tested on: U-251; test: Growth inhibitory activity against CNS cancer U251 cell line was determined; conditions: Homo sapiens
[4] = tested on: MOLT-4; test: Growth inhibitory activity against Leukemia MOLT-4 cell line was determined; conditions: Homo sapiens
[5] = tested on: UACC-62; test: Growth inhibitory activity against Melanoma UACC-62 cell line was determined; conditions: Homo sapiens
[6] = tested on: SF-268; test: Growth inhibitory activity against CNS cancer SF-268 cell line was determined; conditions: Homo sapiens
[7] = tested on: SF-295; test: Growth inhibitory activity against CNS cancer SF-295 cell line was determined; conditions: Homo sapiens
[8] = tested on: SF-539; test: Growth inhibitory activity against CNS cancer SF-539 cell line was determined; conditions: Homo sapiens
[9] = tested on: SNB-19; test: Growth inhibitory activity against CNS cancer SNB-19 cell line was determined; conditions: Homo sapiens
[10] = tested on: SNB-75; test: Growth inhibitory activity against CNS cancer SNB-75 cell line was determined; conditions: Homo sapiens
[11] = tested on: CCRF-CEM; test: Growth inhibitory activity against Leukemia CCRF-CEM cell line was determined; conditions: Homo sapiens
[12] = tested on: LOX IMVI; test: Growth inhibitory activity against Melanoma LOX IMVI cell line; conditions: Homo sapiens
[13] = tested on: SK-MEL-5; test: Growth inhibitory activity against Melanoma SK-MEL-5 cell line was determined; conditions: Homo sapiens
[14] = tested on: A498; test: Growth inhibitory activity against Renal cancer A498 cell line was determined; conditions: Homo sapiens
[15] = tested on: ACHN; test: Growth inhibitory activity against Renal cancer ACHN cell line was determined; conditions: Homo sapiens
[16] = tested on: HT-29; test: Growth inhibitory activity against colon cancer HT-29 cell line was determined; conditions: Homo sapiens
[17] = tested on: MDA-MB-435; test: Growth inhibitory activity against Breast cancer MDA-MB-435 cell line was determined; conditions: Homo sapiens
[18] = tested on: NCI/ADR-RES; test: Growth inhibitory activity against Breast cancer NCI/ADR-RES cell line was determined; conditions: Homo sapiens
[19] = tested on: MDA-MB-231; test: Growth inhibitory activity against Breast cancer MDA-MB-231/ATCC cell line was determined; conditions: Homo sapiens
[20] = tested on: EKVX; test: Growth inhibitory activity against non small cell lung cancer EKVX cell line was determined; conditions: Homo sapiens
[21] = tested on: NCI-H460; test: Growth inhibitory activity against non small cell lung cancer H460 cell line was determined; conditions: Homo sapiens
[22] = tested on: NCI-H522; test: Growth inhibitory activity against non small cell lung cancer H522 cell line was determined; conditions: Homo sapiens
[23] = tested on: HOP-62; test: Growth inhibitory activity against non small cell lung cancer HOP-62 cell line was determined; conditions: Homo sapiens
[24] = tested on: NCI-H23; test: Growth inhibitory activity against non small cell lung cancer NCI-H23 cell line was determined; conditions: Homo sapiens
[25] = tested on: NCI-H226; test: Growth inhibitory activity against non small cell lung cancer NCI-H226 cell line was determined; conditions: Homo sapiens
[26] = tested on: A549; test: Growth inhibitory activity against non small cell lung cancer A549/ATCC cells; conditions: Homo sapiens
[27] = tested on: NCI-H322M; test: Growth inhibitory activity against non small cell lung cancer NCI-H322M cell line was determined; conditions: Homo sapiens
[28] = tested on: CAKI-1; test: Growth inhibitory activity against Renal cancer CAKI-1 cell line […]; conditions: Homo sapiens
[29] = tested on: HOP-92; test: Growth inhibitory activity against non small cell lung cancer HOP-92 cell line was determined; conditions: Homo sapiens
[30] = tested on: NCI-H460; test: In vitro percent of proliferation of vehicle treated NCI-H460 human lung cell lines was determined at 0.0010 M concentration
[31] = tested on: KM12; test: Growth inhibitory activity against colon cancer KM12 cell line was determined; conditions: Homo sapiens
[32] = tested on: MCF7; test: Growth inhibitory activity against Breast cancer MCF-7 cell line was determined; conditions: Homo sapiens
[33] = tested on: HL-60; test: Growth inhibitory activity against Leukemia HL-60(TB) cell line was determined; conditions: Homo sapiens
[34] = tested on: RPMI-8226; test: Growth inhibitory activity against Leukemia RPMI-8226 cell line was determined; conditions: Homo sapiens
[35] = tested on: SR; test: Growth inhibitory activity against Leukemia SR cell line was determined; conditions: Homo sapiens
[36] = tested on: 786-0; test: Growth inhibitory activity against Renal cancer 786-0 cell line was determined; conditions: Homo sapiens
[37] = tested on: SN12C; test: Growth inhibitory activity against Renal cancer SN12C cell line was determined; conditions: Homo sapiens
[38] = tested on: TK-10; test: Growth inhibitory activity against Renal cancer TK-10 cell line was determined; conditions: Homo sapiens
[39] = tested on: HCT-15; test: Growth inhibitory activity against colon cancer HCT-15 cell line was determined; conditions: Homo sapiens
[40] = tested on: SW-620; test: Growth inhibitory activity against colon cancer SW-620 cell line was determined; conditions: Homo sapiens
[41] = tested on: BT-549; test: Growth inhibitory activity against Breast cancer BT-549 cell line was determined; conditions: Homo sapiens
[42] = tested on: PC-3; test: Growth inhibitory activity against Prostate cancer PC-3 cell line was determined; conditions: Homo sapiens
[43] = tested on: HCT-116; test: Growth inhibitory activity against colon cancer HCT116 cell line was determined; conditions: Homo sapiens
[44] = tested on: Hs-578T; test: Growth inhibitory activity against Breast cancer HS 578T cell line was determined; conditions: Homo sapiens
[45] = tested on: HCC 2998; test: Growth inhibitory activity against colon cancer HCC2998 cell line was determined; conditions: Homo sapiens
[46] = tested on: OVCAR-3; test: Growth inhibitory activity against Ovarian cancer OVCAR-3 cell line was determined; conditions: Homo sapiens
[47] = tested on: OVCAR-4; test: Growth inhibitory activity against Ovarian cancer OVCAR-4 cell line was determined; conditions: Homo sapiens
[48] = tested on: OVCAR-5; test: Growth inhibitory activity against Ovarian cancer OVCAR-5 cell line was determined; conditions: Homo sapiens
[49] = tested on: OVCAR-8; test: Growth inhibitory activity against Ovarian cancer OVCAR-8 cell line was determined; conditions: Homo sapiens
[50] = tested on: SK-OV-3; test: Growth inhibitory activity against Ovarian cancer SK-OV-3 cell line was determined; conditions: Homo sapiens
[51] = tested on: DU-145; test: Growth inhibitory activity against Prostate cancer DU-145 cell line was determined; conditions: Homo sapiens
[52] = tested on: SF-268; test: In vitro percent of proliferation of vehicle treated SF-268 human CNS cell lines was determined at 0.0010 M concentration
[53] = tested on: MCF7; test: In vitro percent of proliferation of vehicle treated MCF-7 human breast cell lines was determined at 0.0010 M concentration

O=C(Oc1ccccc1Cl)c1ccccc1Nc1ccnc(C(F)(F)F)c1
GI50 [1]: 30 nM | GI50 [2]: 50 nM | GI50 [3]: 270 nM | GI50 [4]: 20 nM | GI50 [5]: 310 nM | GI50 [6]: 220 nM | GI50 [7]: 240 nM | GI50 [8]: 580 nM | GI50 [9]: 7400 nM | GI50 [10]: 680 nM | GI50 [11]: 30 nM | GI50 [12]: 20 nM | GI50 [13]: 260 nM | GI50 [14]: 3900 nM | GI50 [15]: 280 nM | GI50 [16]: 390 nM | GI50 [17]: 130 nM | GI50 [18]: 320 nM | GI50 [19]: 320 nM | GI50 [20]: 8600 nM | GI50 [21]: 660 nM | GI50 [22]: 510 nM | GI50 [23]: 2700 nM | GI50 [24]: 250 nM | GI50 [25]: 290 nM | GI50 [26]: 730 nM | GI50 [27]: 4800 nM | GI50 [28]: 290 nM | GI50 [29]: 20 nM | Proliferation [30]: 3% | GI50 [31]: 330 nM | GI50 [32]: 280 nM | GI50 [33]: 470 nM | GI50 [34]: 240 nM | GI50 [35]: 30 nM | GI50 [36]: 250 nM | GI50 [37]: 330 nM | GI50 [38]: 650 nM | GI50 [39]: 220 nM | GI50 [40]: 360 nM | GI50 [41]: 340 nM | GI50 [42]: 300 nM | GI50 [43]: 1800 nM | GI50 [44]: 320 nM | GI50 [45]: 2200 nM | GI50 [46]: 220 nM | GI50 [47]: 260 nM | GI50 [48]: 460 nM | GI50 [49]: 240 nM | GI50 [50]: 8000 nM | GI50 [51]: 4300 nM | Proliferation [52]: 17% | Proliferation [53]: 6%

Reference: ChEMBL document CHEMBL1138648, “Synthesis of new N-(2-(trifluoromethyl)pyridin-4-yl)anthranilic acid derivatives and their evaluation as anticancer agents” (2004)
